Data as given in patent US9624182B2, “Compounds as lysophosphatidic acid receptor antagonists” (Amira Pharmaceuticals, Inc., priority 2009, dated 2017).
pIC50: −log10 of the molar value.

Target: T1, human LPA1 (Homo sapiens, UniProt Q92633)
T1 construct: the full-length cDNA for human LPA1 was obtained by PCR of the reverse transcription reaction; expressed in transfected cells
Experiment: LPA1 calcium flux assay
Assay type: cell-based
Conditions: CHO cells expressing human LPA1, stimulated with 10 nM LPA; read-out: HLPA1 Ca Flux IC50
Outline: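 Antagonism measured as block of 10 nM LPA-evoked calcium rise in stable human LPA1-CHO cells. After overnight serum-free culture and 1 h dye loading at 37 °C (buffer with 0.3% fatty-acid-free albumin), compound was added for 30 min at room temperature. Titration curves gave IC50.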

T1 sequence (Q92633 whole entry): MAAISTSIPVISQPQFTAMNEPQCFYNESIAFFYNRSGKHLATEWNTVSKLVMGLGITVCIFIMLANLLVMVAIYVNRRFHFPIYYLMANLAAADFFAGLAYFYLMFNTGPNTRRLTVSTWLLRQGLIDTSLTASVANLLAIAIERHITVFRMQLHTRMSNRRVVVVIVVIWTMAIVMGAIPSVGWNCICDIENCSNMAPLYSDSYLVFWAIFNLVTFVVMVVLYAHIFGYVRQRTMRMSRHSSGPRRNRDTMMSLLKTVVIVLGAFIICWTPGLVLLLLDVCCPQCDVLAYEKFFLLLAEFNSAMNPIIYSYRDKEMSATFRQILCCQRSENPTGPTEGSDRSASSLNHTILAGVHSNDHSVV

| pIC50 | SMILES |
| --- | --- |
| > 6.52 | CC(=O)N(Cc1c(C)noc1-c1ccc(-c2ccc(C3(C(=O)O)CC3)cc2)cc1)CC(C)c1ccccc1 (stereo not shown) [Compound 1-70, 1-[4′-(4-{[Acetyl-(2-phenyl-propyl)-amino]-methyl}-3-methyl-isoxazol-5-yl)-biphenyl-4-yl]-cyclopropanecarboxylic acid] |
| 6.00 to 6.52 | Cc1noc(-c2ccc(-c3ccc(C4(C(=O)O)CC4)cc3)cc2)c1CN(C)C(=O)Cc1ccccc1 [Compound 1-71, 1-(4′-{3-Methyl-4-[(methyl-phenylacetyl-amino)-methyl]-isoxazol-5-yl}-biphenyl-4-yl)-cyclopropanecarboxylic acid] |
| > 6.52 | Cc1noc(-c2ccc(-c3ccc(C4(C(=O)O)CC4)cc3)cc2)c1CN(C)C(=O)C(C)Oc1ccccc1 (stereo not shown) [Compound 1-72, 1-[4′-(3-Methyl-4-{[methyl-(2-phenoxy-propionyl)-amino]-methyl}-isoxazol-5-yl)-biphenyl-4-yl]-cyclopropanecarboxylic acid] |
| 4.30 to 6.00 | Cc1noc(-c2ccc(-c3ccc(C4(C(=O)O)CC4)cc3)cc2)c1CN(CC(C)c1ccccc1)C(=O)C1CC1 (stereo not shown) [Compound 1-73, 1-[4′-(4-{[Cyclopropanecarbonyl-(2-phenyl-propyl)-amino]-methyl}-3-methyl-isoxazol-5-yl)-biphenyl-4-yl]-cyclopropanecarboxylic acid] |
| 4.30 to 6.00 | Cc1noc(-c2ccc(-c3ccc(C4(C(=O)O)CC4)cc3)cc2)c1CN(CC(C)c1ccccc1)C(=O)c1ccccc1 (stereo not shown) [Compound 1-74, 1-[4′-(4-{[Benzoyl-(2-phenyl-propyl)-amino]-methyl}-3-methyl-isoxazol-5-yl)-biphenyl-4-yl]-cyclopropanecarboxylic acid] |
| 4.30 to 6.00 | Cc1noc(-c2ccc(-c3ccc(C4(C(=O)O)CC4)cc3)cc2)c1CCOCc1ccccn1 [Compound 1-75, 1-(4′-{3-Methyl-4-[2-(pyridin-2-ylmethoxy)-ethyl]-isoxazol-5-yl}-biphenyl-4-yl)-cyclopropanecarboxylic acid] |
| 4.30 to 6.00 | Cc1noc(-c2ccc(-c3ccc(C4(C(=O)O)CC4)cc3)cc2)c1CCOCc1cccnc1 [Compound 1-76, 1-(4′-{3-Methyl-4-[2-(pyridin-3-ylmethoxy)-ethyl]-isoxazol-5-yl}-biphenyl-4-yl)-cyclopropanecarboxylic acid] |
| < 4.30 | Cc1noc(-c2ccc(-c3ccc(C4(C(=O)O)CC4)cc3)cc2)c1CCOCc1ccncc1 [Compound 1-77, 1-(4′-{3-Methyl-4-[2-(pyridin-4-ylmethoxy)-ethyl]-isoxazol-5-yl}-biphenyl-4-yl)-cyclopropanecarboxylic acid] |
| > 6.52 | Cc1noc(-c2ccc(-c3ccc(C4(C(=O)O)CC4)cc3)cc2)c1CCC(=O)N(C)c1ccccc1 [Compound 1-82, 1-(4′-{3-Methyl-4-[2-(methyl-phenyl-carbamoyl)-ethyl]-isoxazol-5-yl}-biphenyl-4-yl)-cyclopropanecarboxylic acid] |
| 4.30 to 6.00 | Cc1noc(-c2ccc(-c3ccc(C4(C(=O)O)CC4)cc3)cc2)c1CC[S+]([O-])Cc1ccccc1 (stereo not shown) [Compound 1-84, 1-{4′-[3-Methyl-4-(2-phenylmethanesulfinyl-ethyl)-isoxazol-5-yl]-biphenyl-4-yl}-cyclopropanecarboxylic acid] |
| < 4.30 | Cc1noc(-c2ccc(-c3ccc(C4(C(=O)O)CC4)cc3)cc2)c1CCS(=O)(=O)Cc1ccccc1 [Compound 1-85, 1-{4′-[3-Methyl-4-(2-phenylmethanesulfonyl-ethyl)-isoxazol-5-yl]-biphenyl-4-yl}-cyclopropanecarboxylic acid] |
| > 6.52 | Cc1noc(-c2ccc(-c3ccc(C4(C(=O)O)CC4)cc3)cc2)c1CN(C)CC(C)c1ccccc1 (stereo not shown) [Compound 1-87, 1-[4′-(3-Methyl-4-{[methyl-(2-phenyl-propyl)-amino]-methyl}-isoxazol-5-yl)-biphenyl-4-yl]-cyclopropanecarboxylic acid] |
| > 6.52 | Cc1noc(-c2ccc(-c3ccc(C4(C(=O)O)CC4)cc3)cc2)c1CC(=O)CCc1ccccc1 [Compound 1-88, 1-{4′-[3-Methyl-4-(2-oxo-4-phenyl-butyl)-isoxazol-5-yl]-biphenyl-4-yl}-cyclopropanecarboxylic acid] |
| > 6.52 | Cc1noc(-c2ccc(-c3ccc(C4(C(=O)O)CC4)cc3)cc2)c1CC(=O)NC1Cc2ccccc2C1 [Compound 1-90, 1-{4′-[4-(Indan-2-ylcarbamoylmethyl)-3-methyl-isoxazol-5-yl]-biphenyl-4-yl}-cyclopropanecarboxylic acid] |
| > 6.52 | Cc1noc(-c2ccc(-c3ccc(C4(C(=O)O)CC4)cc3)cc2)c1CC(=O)N(C)Cc1ccccc1F [Compound 1-91, 1-[4′-(4-{[(2-Fluoro-benzyl)-methyl-carbamoyl]-methyl}-3-methyl-isoxazol-5-yl)-biphenyl-4-yl]-cyclopropanecarboxylic acid] |
| 4.30 to 6.00 | Cc1noc(-c2ccc(-c3ccc(C4(C(=O)O)CC4)cc3)cc2)c1CC(=O)N[C@H]1c2ccccc2C[C@H]1O [Compound 1-92, 1-(4′-{4-[((1S,2R)-2-Hydroxy-indan-1-ylcarbamoyl)-methyl]-3-methyl-isoxazol-5-yl}-biphenyl-4-yl)-cyclopropanecarboxylic acid] |

| pIC50 | SMILES |
| --- | --- |
| > 6.52 | Cc1noc(-c2ccc(-c3ccc(C4(C(=O)O)CC4)cc3)cc2)c1/C=C\CCc1ccccc1 [Compound 1-94, 1-{4′-[3-Methyl-4-((Z)-4-phenyl-but-1-enyl)-isoxazol-5-yl]-biphenyl-4-yl}-cyclopropanecarboxylic acid] |
| 6.00 to 6.52 | Cc1noc(-c2ccc(-c3ccc(C4(C(=O)O)CC4)cc3)cc2)c1/C=C/CCc1ccccc1 [Compound 1-95, 1-{4′-[3-Methyl-4-((E)-4-phenyl-but-1-enyl)-isoxazol-5-yl]-biphenyl-4-yl}-cyclopropanecarboxylic acid] |
| > 6.52 | Cc1noc(-c2ccc(-c3ccc(C4(C(=O)O)CC4)cc3)cc2)c1CSCC(C)C [Compound 1-96, 1-[4′-(4-Isobutylsulfanylmethyl-3-methyl-isoxazol-5-yl)-biphenyl-4-yl]-cyclopropanecarboxylic acid] |
| 4.30 to 6.00 | Cc1noc(-c2ccc(-c3ccc(C4(C(=O)O)CC4)cc3)cc2)c1C(C)C(=O)NC(C)c1ccccc1 (stereo not shown) [Compound 1-97, 1-(4′-{3-Methyl-4-[1-(1-phenyl-ethylcarbamoyl)-ethyl]-isoxazol-5-yl}-biphenyl-4-yl)-cyclopropanecarboxylic acid] |
| > 6.52 | Cc1noc(-c2ccc(-c3ccc(C4(C(=O)O)CC4)cc3)cc2)c1CNC(=O)C(C)(C)c1ccccc1 [Compound 1-98, 1-(4′-{3-Methyl-4-[(2-methyl-2-phenyl-propionylamino)-methyl]-isoxazol-5-yl}-biphenyl-4-yl)-cyclopropanecarboxylic acid] |
| > 6.52 | Cc1noc(-c2ccc(-c3ccc(C4(C(=O)O)CC4)cc3)cc2)c1CC(=O)N[C@H]1CCc2ccccc21 [Compound 1-99, 1-{4′-[4-((S)-Indan-1-ylcarbamoylmethyl)-3-methyl-isoxazol-5-yl]-biphenyl-4-yl}-cyclopropanecarboxylic acid] |
| 6.00 to 6.52 | Cc1noc(-c2ccc(-c3ccc(C4(C(=O)O)CC4)cc3)cc2)c1CNC(=O)C(C)Oc1ccccc1 (stereo not shown) [Compound 1-100, 1-(4′-{3-Methyl-4-[(2-phenoxy-propionylamino)-methyl]-isoxazol-5-yl}-biphenyl-4-yl)-cyclopropanecarboxylic acid] |
| > 6.52 | Cc1noc(-c2ccc(-c3ccc(C4(CC(=O)O)CC4)cc3)cc2)c1/C=C\CCc1ccccc1 [Compound 1-101, (1-{4′-[3-Methyl-4-((Z)-4-phenyl-but-1-enyl)-isoxazol-5-yl]-biphenyl-4-yl}-cyclopropyl)-acetic acid] |
| 6.00 to 6.52 | Cc1noc(-c2ccc(-c3ccc(C4(CC(=O)O)CC4)cc3)cc2)c1/C=C/CCc1ccccc1 [Compound 1-102, (1-{4′-[3-Methyl-4-((E)-4-phenyl-but-1-enyl)-isoxazol-5-yl]-biphenyl-4-yl}-cyclopropyl)-acetic acid] |
| > 6.52 | CCN(Cc1c(C)noc1-c1ccc(-c2ccc(C3(C(=O)O)CC3)cc2)cc1)C[C@H](C)c1ccccc1 [Compound 1-104, 1-[4′-(4-{[Ethyl-((R)-2-phenyl-propyl)-amino]-methyl}-3-methyl-isoxazol-5-yl)-biphenyl-4-yl]-cyclopropanecarboxylic acid] |
| > 6.52 | Cc1noc(-c2ccc(-c3ccc(C4(C(=O)O)CC4)cc3)cc2)c1CCC(=O)N(C)[C@H](C)c1ccccc1 [Compound 1-105, 1-[4′-(3-Methyl-4-{2-[(R)-methyl-(1-phenyl-ethyl)-carbamoyl]-ethyl}-isoxazol-5-yl)-biphenyl-4-yl]-cyclopropanecarboxylic acid] |
| 4.30 to 6.00 | Cc1noc(-c2ccc(-c3ccc(C4(C(=O)O)CC4)cc3)cc2)c1CCC(=O)NC(C)(C)c1ccccc1 [Compound 1-106, 1-(4′-{3-Methyl-4-[2-(1-methyl-1-phenyl-ethylcarbamoyl)-ethyl]-isoxazol-5-yl}-biphenyl-4-yl)-cyclopropanecarboxylic acid] |
| < 4.30 | Cc1noc(-c2ccc(-c3ccc(C4(C(=O)O)CC4)cc3)cc2)c1CCC(=O)N1Cc2ccccc2C1 [Compound 1-107, 1-(4′-{4-[3-(1,3-Dihydro-isoindol-2-yl)-3-oxo-propyl]-3-methyl-isoxazol-5-yl}-biphenyl-4-yl)-cyclopropanecarboxylic acid] |
| > 6.52 | Cc1noc(-c2ccc(-c3ccc(CC(=O)O)cc3)cc2)c1CSCCc1ccccc1 [Compound 1-108, [4′-(3-Methyl-4-phenethylsulfanylmethyl-isoxazol-5-yl)-biphenyl-4-yl]-acetic acid] |
| 4.30 to 6.00 | Cc1noc(-c2ccc(-c3ccc(CC(=O)O)cc3)cc2)c1CS(=O)(=O)CCc1ccccc1 [Compound 1-109, {4′-[3-Methyl-4-(2-phenyl-ethanesulfonylmethyl)-isoxazol-5-yl]-biphenyl-4-yl}-acetic acid] |
